Laboratory results as given in patent US11197878B2, “Anti-inflammatory composition including novel quercetin-based compound” (AMOREPACIFIC CORPORATION, priority 2017, dated 2021).

Key:
Format in all cases: cell-based
Conditions in all cases: fibroblast culture medium; H2O2 500 μM 24 hours, then test material (31, 32: 100 μg/ml) 48 hours; ELISA
IL-6 (Interleukin 6) = experiment: Test for inhibiting generation of IL-6 in H2O2-stimulated fibroblast (ELISA)
Method: (§1) Fibroblast (PromoCell, Germany) was inoculated in a 6-well culturing plate at a concentration of 1×10^5 cells, and cultured in a 5% CO2 incubator at 37° C. for 24 hours. The well was treated with H2O2 500 μM and stimulated for 24 hours, and then were treated with quercetin3-O-[3-O″-(E)-p-coumaroyl][β-D-glucopyranosyl-(1→3)-O-α-L-rhamnopyranosyl-(1→6)-O-β-D-glucopyranoside] (‘New Material 31’) and quercetin3-O-[3-O″-(E)-p-coumaroyl][α-L-rhamnopyranosyl-(1→6)-O-β-D-glucopyranoside]) (‘New Material 32’) at a concentration of 100 μg/ml, respectively, and reacted for 48 hours. After the reaction was finished, the culture medium was collected and the ELISA analysis was performed. Herein, α-bisabolol, which is the material typically used as an anti-inflammatory agent and abirritant, was used as a control. As PGE2, a kit of Assay Design® was used, and as IL-6 and IL-8, a kit of Endogen® was used, and the test was carried out according to the methods prescribed in the manuals of the respective companies. (‘31’ refers to New Material 31, and ‘32’ refers to New Material 32) Inhibition effect={1−(test sample−control)/(H2O2−control)}×100 <Equation 1>

IL-8 (Interleukin 8) = experiment: Test for inhibiting generation of IL-8 in H2O2-stimulated fibroblast (ELISA)
Method: as §1

PGE2 (Prostaglandin E2) = experiment: Test for inhibiting generation of PGE2 in H2O2-stimulated fibroblast (ELISA)
Method: as §1

Substance: α-bisabolol [a-bisabolol, reference compound]
- IL-6 (IL-6 (Interleukin 6)): 180 pg/mL
- IL-8 (IL-8 (Interleukin 8)): 200 pg/mL
- PGE2 (PGE2 (Prostaglandin E2)): 205 pg/mL
